What was measured:
[1] = system: Z-138 (mantle cell lymphoma); test: Antiproliferative activity, Z-138 cells (Alamar Blue); assay type: cell-based; conditions: Homo sapiens, Table 10, 72 h, average of several tests
How it was run: (§1)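 Cells (~3*10^4 per well) in RPMI-1640 with 10% FBS and gentamicin were exposed to diluted compounds (DMSO <1%) for 72 h at 37 °C, 5% CO2. Alamar Blue was then added for 14-16 h, and fluorescence was read at Ex 540/Em 590 nm. IC50 came from a four-parameter logistic fit.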

[2] = Stability in human blood plasma; conditions: 10 μM in pooled human blood plasma, incubated 4 hours at 37° C.
[3] = General cytotoxicity on HepG2 cells (CC50; therapeutic index CC50 HepG2/IC50 Mino); assay type: cell-based; conditions: human, HepG2 cells (hepatocellular carcinoma); Table 10; 72 hours, Alamar Blue; average of several tests
How it was run: (§2)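 Cells seeded at 2*10^4 per well in DMEM, compounds added after 24 h at 200 μM to 4 μM final and incubated 72 h. Viability read with Alamar Blue to derive CC50; therapeutic index is CC50 (HepG2) divided by IC50 (Mino).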

[4] = system: HepG2 cells (hepatocellular carcinoma); test: as above; assay type: cell-based; conditions: Table 10; therapeutic index
How it was run: as §2

[5] = Chemical stability in artificial gastric fluid (SGF without enzymes); conditions: 10 μM in SGF without enzymes, pH=1.4, 37° C.
Procedure: The initial candidate solution (10 mM in DMSO) was diluted with the working solution of SGF to the concentration of 10 μm (test solution). The test solution was incubated in a dry block heater at 37° C. We determined peak areas of the compounds corresponding to the start of the test (before incubating) and the end of the test (after incubating in a dry block heater at 37° C.) by HPLC using Agilent1200 chromatograph (Agilent, USA). We used gradient elution (1 mL/min flow rate). We determined amount of substance in the sample in % after incubation.
We evaluated the stability of the compounds.

[6] = system: Mino (mantle cell lymphoma); test: Antiproliferative activity, Mino cells (Alamar Blue); assay type: cell-based; conditions: Homo sapiens, Table 10, 72 h, average of several tests
How it was run: as §1

[7] = Permeability through the monolayer of Caco-2 cells; assay type: in vitro ADME; conditions: human; for Papp A→B at 2 h, 10 μM / Papp B→A at 2 h, 10 μM: 2 h at 37° C.; for efflux ratio at 2 h, 10 μM: read-out: efflux (Papp B-A/Papp A-B)
Excerpt: Assessment of permeability through the monolayer of Caco-2 cells allows to evaluate the ability of the candidate compounds to penetrate through biological membranes by active and passive transport.
Caco-2, the cells of the intestinal epithelium, had been cultured in transwell plate inserts with the filters (with pores of 0.4 μm, BD Falcon with High Density, #353495) for 21 days, and then the integrity of the monolayer were estimated with Lucifer Yellow dye (Sigma-Aldrich, USA) by standard protocol. When setting the A→B transfer, solutions of test substances were added in a buffer with pH 6.5 (Hanks solution, 10 mM HEPES, 15 mM glucose solution) with the concentration of 10 μM into the upper chamber; the lower chamber was filled with a buffer with pH 7.4 (Hanks solution, 10 mM HEPES, 15 mM glucose solution, 1% BSA). When setting B→A transfer, the upper chamber was filled with the buffer with pH 6.5, and solutions of the test substances were added in the buffer with pH 7.4 at the concentration of 10 μM in the lower chamber. Propranolol was used as a control substance (as it has high permeability).
We used gradient elution (1 mL/min flow rate). We determined the areas of peaks corresponding to the compounds. On the basis of peak areas in the calibration standards we determined the concentration of compound in the initial solution and in the samples from the wells of the upper and lower chambers.
Papp, permeability through the cell layer, was calculated using the following formula:
Papp=(C(t)*V)/(C(0)*t*Area), where
Papp is the effective constant of permeability, m/s V is the volume of solution (0.8 ml in A→B test, 0.2 ml in B→A test), ml Area is the surface area of the membrane (0.33 cm^2), cm^2 t is the time of incubation (7200 sec), sec C(0) is the concentration of the initial solution, μM C(t) is the concentration of the solution after 2 hours (the concentration in the sample from the well of the lower chamber in A→B test; the concentration in the sample from the well of the top chamber in B→A test), μM
The value was calculated with the following formula:
efflux=Papp B-A/Papp A-B, where
Papp A-B is the value of the permeability in the direct test (A→B); Papp B-A is the value of the permeability in the backward test in (B→A).

Row | Compound | IC50 [1] [µM] | Amount of substance in the sample, % (stability in human blood plasma) [2] [%] | Amount of substance in the sample in % (chemical stability) [5] [%] | IC50 [6] [µM] | Papp A→B at 2 h, 10 μM [7] [×10⁻⁶ cm/s] | Papp B→A at 2 h, 10 μM [7] [×10⁻⁶ cm/s] | efflux ratio at 2 h, 10 μM [7] | CC50 at 72 h [3] [µM] | CC50 (HepG2)/IC50 (Mino) [4]
1 | C=CC(=O)N1CCC[C@@H](n2nc(-c3ccc(C(=O)Nc4cc(C(F)(F)CC)ccn4)cc3)c3c(N)ncc(Cl)c32)C1 [BCD-BTK-231, (R)-4-(1-(1-acryloylpiperidin-3-yl)-4-amino-7-chloro-1H-pyrazolo[4,3-c]pyridin-3-yl)-N-(4-(1,1-difluoropropyl)pyridin-2-yl)benzamide] | 3.39 | 93.1 | 100 | 2.26 | 9.8 | 1.84 | 0.19 | 9.08 | 4.01
2 | CC#CC(=O)N1CC(Cn2nc(-c3ccc(Oc4ccncc4)cc3)c3cncc(Cl)c32)C1 [BCD-BTK-261, 1-(3-((7-chloro-3-(4-(pyridin-4-yloxy)phenyl)-1H-pyrazolo[4,3-c]pyridin-1-yl)methyl)azetidin-1-yl)but-2-yn-1-one] | 5.01 | 100.0 | 100 | 4.27 | 8.3 | 0.95 | 0.11 | 8.33 | 1.95
3 | CC#CC(=O)N1CCC[C@@H](n2nc(-c3ccc(C(=O)Nc4ccccn4)cc3)c3cncc(Cl)c32)C1 [BCD-BTK-289, (R)-4-(1-(1-(but-2-ynoyl)piperidin-3-yl)-7-chloro-1H-pyrazolo[4,3-c]pyridin-3-yl)-N-(pyridin-2-yl)benzamide] | 8.29 | 100.0 | 100 | 10.2 |  |  |  | 18.8 | 1.85

Now from value to compound, other results behind:

Row | IC50 [1] [µM] | Amount of substance in the sample, % (stability in human blood plasma) [2] [%] | Amount of substance in the sample in % (chemical stability) [5] [%] | IC50 [6] [µM] | Papp A→B at 2 h, 10 μM [7] [×10⁻⁶ cm/s] | Papp B→A at 2 h, 10 μM [7] [×10⁻⁶ cm/s] | efflux ratio at 2 h, 10 μM [7] | Compound | CC50 at 72 h [3] [µM] | CC50 (HepG2)/IC50 (Mino) [4]
4 | 10.8 | 88.6 | 95.9 | 15.3 | 6.27 | 3.58 | 0.57 | C=CC(=O)N1CCC[C@@H](n2nc(-c3ccc(Oc4ccncc4C#N)cc3)c3c(N)ncc(Cl)c32)C1 [BCD-BTK-232, (R)-4-(4-(1-(1-acryloylpiperidin-3-yl)-4-amino-7-chloro-1H-pyrazolo[4,3-c]pyridin-3-yl)phenoxy)nicotinonitrile] | 31.1 | 2.04
5 | 16.6 | 81.7 | 94.8 | 7.91 |  |  |  | CC#CC(=O)N1CC[C@@H](n2nc(-c3ccc(Oc4ccncc4)cc3)c3cncc(Cl)c32)C1 [BCD-BTK-265, (R)-1-(3-(7-chloro-3-(4-(pyridin-4-yloxy)phenyl)-1H-pyrazolo[4,3-c]pyridin-1-yl)pyrrolidin-1-yl)but-2-yn-1-one] | 16.5 | 2.09
6 | > 100 | 91.3 | 100 | 40.1 |  |  |  | C=CC(=O)N1CCC[C@@H](n2nc(-c3ccc(Oc4cncc(C(N)=O)c4)cc3)c3cncc(F)c32)C1 [BCD-BTK-274, (R)-5-(4-(1-(1-acryloylpiperidin-3-yl)-7-fluoro-1H-pyrazolo[4,3-c]pyridin-3-yl)phenoxy)nicotinamide] | 38 | 0.95
